Results from ChEMBL document CHEMBL5316307, “Searching for Novel Noncovalent Nuclear Export Inhibitors through a Drug Repurposing Approach” (J Med Chem, 2023).
Activity calls are given as the source filed them. The rule behind the calls is not given here.

Columns and labels:
[1] = Stability of the compound at 100 uM in presence of DTT; format: physicochemical
Exportin-1 [2] = target: T1, Exportin-1 (Homo sapiens, UniProt O14980); experiment: Binding affinity to CRM1 in human HeLa cells assessed as thermal stabilization at 100 uM at 4 to 90 degreeC incubated for 3 mins by […] analysis; format: cell-based
T1 sequence (O14980 whole entry): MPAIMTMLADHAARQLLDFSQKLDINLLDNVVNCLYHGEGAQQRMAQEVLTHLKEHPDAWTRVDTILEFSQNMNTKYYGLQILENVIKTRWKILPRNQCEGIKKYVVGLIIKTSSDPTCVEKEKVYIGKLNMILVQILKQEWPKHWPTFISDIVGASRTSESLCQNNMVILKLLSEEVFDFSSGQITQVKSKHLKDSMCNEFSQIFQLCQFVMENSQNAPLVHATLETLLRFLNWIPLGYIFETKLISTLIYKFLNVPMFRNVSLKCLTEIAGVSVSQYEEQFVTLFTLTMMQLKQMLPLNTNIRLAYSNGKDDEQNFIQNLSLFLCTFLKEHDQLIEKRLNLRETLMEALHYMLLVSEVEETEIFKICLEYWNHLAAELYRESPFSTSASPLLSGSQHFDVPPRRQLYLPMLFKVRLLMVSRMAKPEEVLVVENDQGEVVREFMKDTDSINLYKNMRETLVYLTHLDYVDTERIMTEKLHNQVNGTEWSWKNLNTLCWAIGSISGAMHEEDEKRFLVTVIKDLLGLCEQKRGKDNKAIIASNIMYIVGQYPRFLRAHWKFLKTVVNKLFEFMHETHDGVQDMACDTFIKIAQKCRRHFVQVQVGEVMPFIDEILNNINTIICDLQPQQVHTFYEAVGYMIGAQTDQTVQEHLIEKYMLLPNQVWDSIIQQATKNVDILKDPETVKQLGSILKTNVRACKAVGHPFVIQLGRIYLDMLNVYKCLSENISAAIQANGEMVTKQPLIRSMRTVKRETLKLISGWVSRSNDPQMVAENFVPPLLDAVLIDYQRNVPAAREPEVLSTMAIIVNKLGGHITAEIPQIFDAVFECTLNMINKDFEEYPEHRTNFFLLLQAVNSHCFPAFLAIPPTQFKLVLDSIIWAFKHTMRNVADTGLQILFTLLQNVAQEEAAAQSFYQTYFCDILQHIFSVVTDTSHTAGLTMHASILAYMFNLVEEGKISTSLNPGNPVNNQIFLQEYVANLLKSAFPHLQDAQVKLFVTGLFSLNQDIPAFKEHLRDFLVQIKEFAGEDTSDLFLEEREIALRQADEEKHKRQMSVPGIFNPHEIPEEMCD

Exportin-1 [3] = target: T1, Exportin-1; experiment: Inhibition of human CRM1 at 50 uM by GST-NES MVM based pulldown assay
HGC-27 = experiment: Cytotoxicity against human HGC-27 cells assessed as inhibition of cell growth incubated for 72 hrs by SRB assay; format: functional, cell-based; conditions: HGC-27, 72 h
Exportin-1 [4] = target: T1, Exportin-1; experiment: Inhibition of human CRM1 at 3 to 30 uM by GST-NES MVM based pulldown assay; conditions: dose 3-30 µM
Exportin-1 [5] = target: T1, Exportin-1; experiment: Non-covalent inhibition of human CRM1 at 100 uM by GST-NES MVM based pulldown assay
[6] = system: Exportin-1 (Homo sapiens), O14980 [C528S]; experiment: Inhibition of human CRM1 C7 fragment C528S mutant at 50 to 100 uM by GST-NES MVM based pulldown assay; conditions: dose 50-100 µM
Sequence of Exportin-1 (Homo sapiens), O14980 [C528S] (O14980 whole entry C528S, the tested form may be a part): as the sequence (O14980 whole entry) above, with C528S counted along it

MGC-803 = experiment: Cytotoxicity against human MGC-803 cells assessed as inhibition of cell growth at 50 uM incubated for 72 hrs by SRB assay; format: functional, cell-based
PANC-1 = experiment: Cytotoxicity against human PANC-1 cells assessed as inhibition of cell growth at 50 uM incubated for 72 hrs by SRB assay; format: functional, cell-based
Ishikawa = experiment: Cytotoxicity against human Ishikawa cells assessed as inhibition of cell growth at 50 uM incubated for 72 hrs by SRB assay; format: functional, cell-based
SW480 = experiment: Cytotoxicity against human SW480 cells assessed as inhibition of cell growth at 50 uM incubated for 72 hrs by SRB assay; format: functional, cell-based
MDA-MB-453 [7] = experiment: Cytotoxicity against human MDA-MB-453 cells assessed as inhibition of cell growth at 50 uM incubated for 72 hrs by SRB assay; format: functional, cell-based
MDA-MB-453 [8] = experiment: Synergistic cytotoxicity against human MDA-MB-453 cells assessed as combination index at 100 uM incubated for 3 days in presence of 270 nM doxorubicin by SRB assay; format: functional; conditions: time 3 day
Exportin-1 [9] = target: T1, Exportin-1; experiment: Competitive inhibition of human CRM1 assessed as dissociation constant incubated in presence of RanGTP and IAF-conjugated protein kinase inhibitor peptide by MST assay
HeLa = experiment: Cytotoxicity against human HeLa cells assessed as inhibition of cell growth at 50 uM incubated for 72 hrs by SRB assay; format: functional, cell-based
A2780 = experiment: Cytotoxicity against human A2780 cells assessed as inhibition of cell growth at 50 uM incubated for 72 hrs by SRB assay; format: functional, cell-based
Exportin-1 [10] = target: T1, Exportin-1; experiment: Inhibition of CRM1 in semi-permeabilized human HeLa cells transfected with GFP-NES-NLS fusion plasmid assessed as inhibition of nuclear export of cargoes at 50 to 100 uM incubated for 30 mins by immunostaining analysis; format: cell-based; conditions: dose 50-100 µM
MDA-MB-453 [11] = experiment: Synergistic cytotoxicity against human MDA-MB-453 cells assessed as combination index at 100 uM incubated for 3 days in presence of 10 nM doxorubicin by SRB assay; format: functional; conditions: time 3 day
MDA-MB-453 [12] = experiment: Synergistic cytotoxicity against human MDA-MB-453 cells assessed as combination index at 100 uM incubated for 3 days in presence of 30 nM doxorubicin by SRB assay; format: functional; conditions: time 3 day
MDA-MB-453 [13] = experiment: Synergistic cytotoxicity against human MDA-MB-453 cells assessed as combination index at 100 uM incubated for 3 days in presence of 90 nM doxorubicin by SRB assay; format: functional; conditions: time 3 day
Exportin-1 [14] = target: T1, Exportin-1; experiment: Binding affinity to NES groove of human CRM1 C7 fragment at 50 to 100 uM by GST-NES MVM based pulldown assay; conditions: dose 50-100 µM
Exportin-1 [15] = target: T1, Exportin-1; experiment: Inhibition of CRM1 in intact human HeLa cells transfected with GFP-NES-NLS fusion plasmid assessed as inhibition of nuclear export of cargoes at 200 uM incubated for 30 mins by immunostaining analysis; format: cell-based
HepG2 = experiment: Cytotoxicity against human HepG2 cells assessed as inhibition of cell growth at 50 uM incubated for 72 hrs by SRB assay; format: functional, cell-based
MDA-MB-453 [16] = experiment: Synergistic cytotoxicity against human MDA-MB-453 cells assessed as combination index at 100 uM incubated for 3 days in presence of 810 nM doxorubicin by SRB assay; format: functional; conditions: time 3 day

SMILES: CC(C)CCNC/C=C/[S+]([O-])c1cc(C(F)(F)F)cc(C(F)(F)F)c1 (stereo unspecified)
- Stability [1]: Unstable

SMILES: COc1cc(C(=O)N(C)S(=O)(=O)c2ccccc2C)ccc1Cc1cn(C)c2ccc(NC(=O)OC3CCCC3)cc12
- Activity (Exportin-1 [2]): inactive
- inhibition (Exportin-1 [3]): inactive
- inhibition (Exportin-1 [3]; tested as the 2H-labelled form): inactive
- IC50 (HGC-27): 285 µM

SMILES: [2H]C([2H])([2H])N(C(=O)c1ccc(Cc2cn(C)c3ccc(NC(=O)OC4CCCC4)cc23)c(OC)c1)S(=O)(=O)c1ccccc1C
- IC50 (HGC-27): 457 µM

SMILES: COC(=O)Nc1ccc2c(c1)c(Cc1ccc(C(=O)NS(=O)(=O)c3ccccc3C)cc1OC)cn2C
- inhibition (Exportin-1 [4]): Active
- IC50 (HGC-27): 44 µM

SMILES: COc1cc(C(=O)NS(=O)(=O)c2cccc(C)c2)ccc1Cc1cn(C)c2ccc(NC(=O)OC3CCCC3)cc12
- inhibition (Exportin-1 [4]): Active
- IC50 (HGC-27): 44 µM

SMILES: COc1cc(C(=O)NS(=O)(=O)c2ccc(C)cc2)ccc1Cc1cn(C)c2ccc(NC(=O)OC3CCCC3)cc12
- IC50 (HGC-27): 44 µM

SMILES: CC(O)(CS(=O)(=O)c1ccc(F)cc1)C(=O)Nc1ccc(C#N)c(C(F)(F)F)c1 (stereo unspecified)
- inhibition (Exportin-1 [5]): inactive

SMILES: N[C@@H](CC(=O)N1CCn2c(nnc2C(F)(F)F)C1)Cc1cc(F)c(F)cc1F
- inhibition (Exportin-1 [5]): inactive

SMILES: O=C(/C=C\n1cnc(-c2cc(C(F)(F)F)cc(C(F)(F)F)c2)n1)NNc1cnccn1
- inhibition [6]: Active

SMILES: COc1cc(C(=O)NS(=O)(=O)c2ccccc2C)ccc1Cc1cn(C)c2ccc(NC(=O)OC3CCCC3)cc12 [ZAFIRLUKAST]
- inhibition (MGC-803): Active
- Activity (Exportin-1 [2]): Active
- inhibition [6]: inactive
- Stability [1]: Stable
- inhibition (PANC-1): Active
- inhibition (Ishikawa): Active
- IC50 (HGC-27): 44 µM
- inhibition (SW480): Active
- inhibition (MDA-MB-453 [7]): Active
- CI (MDA-MB-453 [8]): 0.88
- Kd (Exportin-1 [9]): 10 µM
- inhibition (HeLa): Active
- inhibition (A2780): Active
- inhibition (Exportin-1 [10]): Active
- CI (MDA-MB-453 [11]): 0.78
- CI (MDA-MB-453 [12]): 0.78
- CI (MDA-MB-453 [13]): 0.78
- Activity (Exportin-1 [14]): Active
- inhibition (Exportin-1 [15]): Active
- inhibition (HepG2): Active
- CI (MDA-MB-453 [16]): 0.58
- inhibition (Exportin-1 [5]): Active
